Experiments:
Assay type in all cases: toxicity, cell-based
HEK-293T = assay: Incucyte cell viability with HEK293T; conditions: human, 10 µM, compound concentration 10 uM
Fibroblast = assay: Incucyte cell viability with human fibroblast; conditions: 10 µM, compound concentration 10 uM
U2OS = assay: Incucyte cell viability with U2OS; conditions: human, 10 µM, compound concentration 10 uM
Further: unitless GR value; below 1 slowed growth and below 0 cell loss.

| Structure (SMILES) | Growth Rate (HEK-293T; 6 h, replicate number 1) | Growth Rate (HEK-293T; 6 h, replicate number 2) | Growth Rate (HEK-293T; 12 h, replicate number 1) | Growth Rate (HEK-293T; 12 h, replicate number 2) | Growth Rate (HEK-293T; 18 h, replicate number 1) | Growth Rate (HEK-293T; 18 h, replicate number 2) | Growth Rate (HEK-293T; 24 h, replicate number 1) | Growth Rate (HEK-293T; 24 h, replicate number 2) | Growth Rate (Fibroblast; 6 h, replicate number 1) | Growth Rate (Fibroblast; 6 h, replicate number 2) | Growth Rate (Fibroblast; 12 h, replicate number 2) | Growth Rate (Fibroblast; 18 h, replicate number 2) | Growth Rate (Fibroblast; 24 h, replicate number 2) | Growth Rate (U2OS; 0 h, replicate number 1) | Growth Rate (U2OS; 6 h, replicate number 2) | Growth Rate (U2OS; 12 h, replicate number 1) | Growth Rate (U2OS; 18 h, replicate number 1) | Growth Rate (U2OS; 18 h, replicate number 2) | Growth Rate (U2OS; 24 h, replicate number 1) | Growth Rate (U2OS; 24 h, replicate number 2) | other results |
| --- | --- | --- | --- | --- | --- | --- | --- | --- | --- | --- | --- | --- | --- | --- | --- | --- | --- | --- | --- | --- | --- |
| c1ccc2c(c1)SCc1c-2[nH]c2ccccc12 | -0.95 | -0.96 | -0.76 | -0.7 | -0.53 | -0.49 | -0.37 | -0.38 | -0.99 | -1 | -0.98 | -0.94 | -0.84 | -0.33 | -0.66 | -0.65 | -0.63 | -0.49 | -0.5 | -0.42 | Growth Rate (Fibroblast; 0 h, replicate number 1): -1; Growth Rate (Fibroblast; 12 h, replicate number 1): -0.96; Growth Rate (Fibroblast; 18 h, replicate number 1): -0.86; Growth Rate (Fibroblast; 24 h, replicate number 1): -0.75; Growth Rate (U2OS; 6 h, replicate number 1): -0.4; Growth Rate (U2OS; 12 h, replicate number 2): -0.52 |
| COc1ncc2cc(C(=O)Nc3cc(C(=O)NCc4cccc(Cl)c4)ccc3Cl)c(=O)[nH]c2n1 | 0.22 | -0.03 | 0.64 | 0.55 | 0.51 | 0.64 | 0.67 | 0.79 |  | -0.4 | 0.79 |  | 0.92 |  | 0.67 |  |  | 0.97 |  | 0.97 | Growth Rate (Fibroblast; 0 h, replicate number 2): 0.35; Growth Rate (Fibroblast; 12 h, replicate number 1): -0.98; Growth Rate (Fibroblast; 18 h, replicate number 1): -0.46; Growth Rate (Fibroblast; 24 h, replicate number 1): 0.44 |
| Cn1cc(-c2ccc3occ(-c4cccc(-c5ccncc5)c4)c3n2)cn1 | -0.45 | -0.34 | -0.46 | 0 | -0.15 | 0.33 | 0.35 | 0.52 |  | -0.75 | 0.4 | 0.54 | 0.73 |  | 0.44 | 0.6 | 0.65 | 0.73 | 0.7 | 0.87 | Growth Rate (Fibroblast; 0 h, replicate number 1): 0.22; Growth Rate (Fibroblast; 12 h, replicate number 1): -0.8; Growth Rate (Fibroblast; 18 h, replicate number 1): 0.07; Growth Rate (Fibroblast; 24 h, replicate number 1): 0.25; Growth Rate (U2OS; 0 h, replicate number 2): 0.89; Growth Rate (U2OS; 6 h, replicate number 1): -0.24; Growth Rate (U2OS; 12 h, replicate number 2): 0.51 |
| CC(C)(C)c1ccc(-c2coc3ccc(-c4cn[nH]c4)nc23)cc1 | 0.67 | 0.37 |  | 0.72 |  | 0.95 |  | 0.84 | -0.96 | -0.95 | -0.62 | -0.24 | -0.11 | 0.77 |  | 0.97 | 0.67 | 0.81 | 0.5 | 0.63 | Growth Rate (Fibroblast; 0 h, replicate number 2): 0.44; Growth Rate (Fibroblast; 24 h, replicate number 1): 0.94; Growth Rate (U2OS; 0 h, replicate number 2): -0.87 |
| O=C1NCc2ccc3c(-c4cccc(Cl)c4)c[nH]c3c21 | -0.5 |  | -0.49 | -0.24 | -0.21 | -0.13 | -0.06 | -0.07 |  | -1 | -0.89 | -0.75 | -0.57 |  | 0.05 | -0.32 | -0.16 | -0.11 | -0.1 | -0.06 | Growth Rate (Fibroblast; 12 h, replicate number 1): -1; Growth Rate (Fibroblast; 18 h, replicate number 1): -0.89; Growth Rate (Fibroblast; 24 h, replicate number 1): -0.46; Growth Rate (U2OS; 6 h, replicate number 1): -0.34; Growth Rate (U2OS; 12 h, replicate number 2): -0.15 |
| CNc1nc(NCc2ncccn2)c2c(-c3ccc4ncccc4c3)c[nH]c2n1 | 0.58 | 0.42 | 0.9 | 0.84 | 0.83 | 0.8 | 0.84 | 0.86 |  |  |  |  |  |  | 0.82 |  | 0.84 | 0.85 | 0.94 | 0.86 | Growth Rate (Fibroblast; 0 h, replicate number 1): -0.08; Growth Rate (Fibroblast; 0 h, replicate number 2): -0.54; Growth Rate (Fibroblast; 12 h, replicate number 1): -0.94; Growth Rate (Fibroblast; 18 h, replicate number 1): 0.83; Growth Rate (U2OS; 6 h, replicate number 1): 0.78; Growth Rate (U2OS; 12 h, replicate number 2): 0.7 |
| NC(=O)c1cc2c(-c3ccc(C(=O)NCc4ccnc(Cl)c4)s3)cccc2s1 | -0.51 | -0.71 | -0.4 | -0.32 | -0.29 | -0.17 | -0.23 | -0.09 | -1 | -0.95 | -0.43 | -0.25 | -0.11 | -0.34 | -0.51 | 0.05 | 0 | -0.03 | 0.05 | 0.03 | Growth Rate (U2OS; 0 h, replicate number 2): 0.46; Growth Rate (U2OS; 6 h, replicate number 1): -0.24; Growth Rate (U2OS; 12 h, replicate number 2): -0.23 |
| CCN1/C(=C/C(C)=O)Sc2ccc(OC(C)=O)cc21 | -0.36 | 0.16 | 0.1 | 0.67 | 0.02 | 0.66 | 0.09 | 0.67 |  | -0.62 |  |  |  | 0.39 | 0.95 | 0.91 | 1 | 0.94 | 0.98 | 0.9 | Growth Rate (Fibroblast; 0 h, replicate number 2): 0.08; Growth Rate (Fibroblast; 24 h, replicate number 1): 0.91; Growth Rate (U2OS; 0 h, replicate number 2): -0.86; Growth Rate (U2OS; 12 h, replicate number 2): 0.62 |
| COc1cc(C(=O)N2CC[C@@H](O)[C@@H](N)C2)cc2nc(-c3cc4ccccc4n3CC3CC3)n(C)c12.Cl | 0.46 | -0.12 | 0.73 | 0.39 | 0.82 | 0.3 | 0.58 | 0.27 | -1 | -0.02 | 0.16 | 0.2 | 0.27 | -0.93 |  |  |  |  |  |  |  |
| CC(C)n1cc(-c2ccc(N3CCN(C)CC3)c(NC(=O)c3ccc(-c4ccncc4)o3)c2)cn1 | -0.65 | -0.31 | -0.36 | -0.01 | -0.19 | 0.15 | -0.08 | 0.31 | -0.97 | 0.11 | 0.45 | 0.67 | 0.65 | -0.65 |  | 0.96 |  |  |  |  | Growth Rate (Fibroblast; 0 h, replicate number 2): -0.35; Growth Rate (U2OS; 0 h, replicate number 2): -0.8 |
| COc1ccc2nc3ccc(OC)cc3c(SCCCN)c2c1.Cl | -0.94 | 0.26 | -0.75 | 0.76 | -0.57 | 0.45 | -0.41 | 0.33 | -1 |  |  |  | 0.89 |  |  |  |  | 0.99 | 0.86 | 0.85 | Growth Rate (Fibroblast; 0 h, replicate number 2): -0.39; Growth Rate (U2OS; 0 h, replicate number 2): -0.96 |
| CCn1c(-c2nc3cc(C(=O)N4CCCC(N)C4)ccc3n2C)cc2ccccc21.Cl (stereo unspecified) | 0.45 | 0.09 |  | 0.8 |  | 0.89 |  | 0.87 | -0.88 | 0.59 | 0.96 | 0.78 | 0.77 | -0.07 |  |  |  |  |  |  | Growth Rate (U2OS; 0 h, replicate number 2): -0.69 |
| C#Cc1cnc2[nH]cc(-c3cccc4c3CCN4C(=O)[C@@H]3CCCN3C#N)c2c1 | -0.95 | -0.98 | -0.75 | -0.78 | -0.46 | -0.5 | -0.29 | -0.34 | -0.83 | -1 | -0.69 | -0.58 | -0.41 | 0.82 | 0.45 | -0.58 | -0.68 | -0.52 | -0.58 | -0.56 | Growth Rate (Fibroblast; 0 h, replicate number 1): -1; Growth Rate (Fibroblast; 12 h, replicate number 1): -0.63; Growth Rate (Fibroblast; 18 h, replicate number 1): -0.48; Growth Rate (Fibroblast; 24 h, replicate number 1): -0.36; Growth Rate (U2OS; 6 h, replicate number 1): 0.06; Growth Rate (U2OS; 12 h, replicate number 2): -0.19 |

From ChEMBL document CHEMBL5303304, “EUbOPEN Chemogenomics Library - IncuCyte” (2023)
